Source: US20250034151A1, “WEE1 INHIBITOR, PREPARATION THEREFOR, AND USE THEREOF” (JIANGSU TASLY DIYI PHARMACEUTICAL CO., LTD., priority 2022, published 2025)

Legend:
[1] = Membrane permeability study (Caco-2); assay type: in vitro ADME; settings: human; for Papp A→B at 90 min, 10 µM / Papp B→A at 90 min, 10 µM: pH 7.4, Caco-2, 10 μM; for Papp A→B at 90 min, 10 µM: apical to basolateral; for Papp B→A at 90 min, 10 µM: basolateral to apical
Protocol: Caco-2 cells were purchased from the […] (Rockville, MD). The cell culture medium was modified Eagle's medium (MEM) containing 10% inactivated fetal bovine serum and 1% non-essential amino acids.
The cells were incubated for 21-28 days after inoculation for transport experiments and the apparent permeability (Papp) of Lucifer Yellow was used to characterize and verify the compactness of the cell monolayer. […] A 10 μM working solution of the compound to be tested was added to the apical side and basolateral side of Caco-2 and incubated at 37° C. for 90 min. After the incubation, dilute the samples on the apical side and basolateral side, and the concentrations of compounds on the apical and basolateral sides were detected by LC-MS/MS, and the concentrations of the compounds were quantified by standard curve.

[2] = Plasma protein binding (PPB), equilibrium dialysis; assay type: in vitro ADME; settings: mouse plasma, 5 h dialysis
Excerpt: 1. Experimental Procedure
2. Data Processing and Parameter Calculation

H1299 cells = assay: Anti-proliferative effect on H1299 cells by Cell Titer-Glo; assay type: cell-based; settings: Homo sapiens, NCI-H1299, 72 h, 3 days, read-out: H1299 (IC50, inhibition of proliferation in vitro)
Method in brief: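 H1299 cells exposed to compound dilutions for 3 days at 37 °C, 5% CO2, final DMSO 0.2%. Viability read by CellTiter-Glo luminescence, normalised to untreated-cell (max) and medium (min) controls. IC50 from a variable-slope log(inhibitor) vs. response fit.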

MIA PaCa2 cells = assay: Anti-proliferative effect on MIA PaCa2 cells by Cell Titer-Glo; assay type: cell-based; settings: Homo sapiens, MIA PaCa-2, 72 h, 3 days, read-out: MIA PaCa 2 (IC50, inhibition of proliferation in vitro)
Method in brief: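 Cells exposed to graded compound concentrations for 3 days at 37° C, 5% CO2, final DMSO 0.2%; viability read by CellTiter-Glo luminescence. Inhibition normalised to untreated cells (max) and medium (min); IC50 fitted by variable-slope log(inhibitor)-response model.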

[3] = Pharmacokinetics on single dose in mice (intravenous and oral); assay type: in vivo, ICR mice; settings: for F/%: Oral 10 mg/kg vs Intravenous 1 mg/kg; for Cmax / half-life / AUC(0-t) / MRT: male, ICR, mouse, plasma
Protocol: 1. Experimental Aim: The present experiment aimed to obtain the pharmacokinetic profile of the subject compounds in ICR mice (both intravenous and oral) 3.1.2 Test System Species: SPF grade male ICR mice Body weight/weekly age: about 30 g 4. […] 4.2 Subjects Given (Route) Intravenous: 1 mg/kg in a volume of 5 mL/kg Gavage: 10 mg/kg in a volume of 10 mL/kg Ultrasound for 5 min before administration 4.3 Subject Preparation (Concentration) Intravenous: 0.2 mg/mL Gavage: 1 mg/mL Fast overnight before administration and feed four hours after administration. […] The blood samples were stored in a refrigerator at or below −20° C. for LC-MS/MS analysis. […] LC-MS/MS Analytical Detection Used 5. Data Processing The samples were detected for drug concentration at each time point by LC-MS/MS. Pharmacokinetic parameters terminal elimination half-life (t1/2), area under the curve (AUC), apparent volume of distribution (Vd), clearance (CL), mean residence time (MRT), and Cmax were calculated using the non-compartmental model of Phoenix WinNonlin 5.2. Bioavailability (F %) was directly from serum concentration results. Mean±standard deviation (X±SD) was used for blood concentration and pharmacokinetic parameters, etc. Specific testing and analytical methods were specified in the form of protocol revisions.

SMILES | Papp A→B at 90 min, 10 µM [1] | Papp B→A at 90 min, 10 µM [1] | fraction unbound at 5 h, 1 µM [2] | IC50 (H1299 cells) | IC50 (MIA PaCa2 cells) | F/% [3] | Cmax ([3]; Intravenous, 1 mg/kg) | half-life ([3]; Intravenous, 1 mg/kg) | efflux ratio at 90 min, 10 µM ([1]; Caco-2, pH 7.4) | AUC(0-t) ([3]; Intravenous, 1 mg/kg) | MRT ([3]; Intravenous, 1 mg/kg) | AUC(0-t) ([3]; Oral, 10 mg/kg) | Cmax ([3]; Oral, 10 mg/kg) | MRT ([3]; Oral, 10 mg/kg) | half-life ([3]; Oral, 10 mg/kg)
C=CCn1c(=O)c2cnc(Nc3ccc(N4CCN(C)CC4)cc3)nc2n1-c1cccc(C(C)(C)O)n1 [AZD1775] | 15.6 ×10⁻⁶ cm/s | 39.8 ×10⁻⁶ cm/s | 0.087 | 100 to 1000 nM | 100 to 1000 nM | 32% | 250 ng/mL | 30 min | – | – | – | – | – | – | –
C=CCn1c(=O)c2cnc(Nc3ccc(N4CC5CC(C4)N5C)cc3)nc2n1-c1cccc(C(C)(C)O)n1 [Compound 27] | 3.07 ×10⁻⁶ cm/s | 53.5 ×10⁻⁶ cm/s | 0.141 | 100 to 1000 nM | 100 to 1000 nM | 28.6% | 170 ng/mL | 46.8 min | 17.4 | 134 ng·h/mL | 39.6 min | 285 ng·h/mL | 392 ng/mL | 66 min | 61.8 min
